Reference: patent EP2181589A1, “Neurotoxic sterol glycosides” (Shaw, Christopher Ariel, priority 2008, dated 2010)
Marks after values point to notes of the source that are not given here.

Legend:
Assay type in all cases: in vivo, CD-1 mice
Active Caspase-3 = assay: Active caspase-3 labelling (apoptotic activity)
Procedure: (§1) The synthetic SG was mixed with finely ground Purina Chow mouse pellets (Mouse Diet™, Purina) to create the experimental pellets with a SG content of 1000 µg per pellet. Dry materials were blended with a sterile silicon spatula. For every 5 g of standard feed, 2.5 mL of doubly-distilled water (dd)H2O was added and the dough was kneaded and round up into pellets. A single sterol glucoside containing pellet was placed in the feeding tray each morning before the addition of regular mouse chow (ad libitum). All experimental pellets were entirely consumed by the mice each day. Control mice were fed standard mouse chow pellets of identical weight with no additives. SG feeding was conducted daily for 15 weeks and mice were behaviorally monitored until sacrifice at 35 weeks (time point 1) or 52 weeks (time point 2).
(§2) Tissue-mounted slides were processed for fluorescence microscopy as follows: Sections were rinsed in coplin jars for 45 minutes at room temperature (RT) in three changes of PBS. Sections were then incubated at RT for 30 minutes in a blocking permeabilization solution made of 5% normal goat serum (NGS), 5% normal rabbit serum (NRS) or 5% BlokHen II (Aves Labs, Inc., Tigard, OR), 0.05% Triton X-100 and PBS. Subsequently, the blocking solution was tipped off and the slides were rinsed in PBS for 2 minutes. […]

Cytochrome c oxidase = Cytochrome c oxidase histochemistry; conditions: for Cytochrome c oxidase activity: SG-fed vs control
Procedure: as §1
Tissue-mounted slides were processed for […] in a manner adapted from Seligman et al. (1968) and Wong-Riley (1979). Sections were rinsed in coplin jars for 15 minutes at RT in three changes of PBS and subsequently incubated with a media comprised of 50 mg of 3,3'-diaminobenzidine tetrahydrochloride (DAB) (DAB substrate system, Vector Laboratories, Burlingame, CA, USA), 90 mL 0.1M phosphate buffer, 20 mg cytochrome c (type III, Sigma-Aldrich Co., Oakville, ON, Canada), and 4 g of sucrose in a dish submerged in a water bath maintained at 37°C in the dark for 2 hours. The sections were monitored closely for the brown reaction product to appear within the tissue. Once a medium-brown color was achieved, slides were removed from the incubation media and rinsed for 15 minutes in three changes of PBS to stop the reaction. This was followed with a 2 minutes rinse in distilled water to remove residue from the slides. The slides were dried under a fume hood and cover-slipped with Entellen (Merck, Darmstadt, Germany).
The numbers of immunoreactive somata or inclusions were counted across the ventral horn of the spinal cord, across brain hemispheres, or per dorsal or ventral root with the 40x objective lens in a 600 µm / 600 µm area within region perimeters defined by a mouse brain atlas (2001). For each animal, eight cross-sections per spinal cord or brain region were studied. […] For quantification of the level of mitochondrial activity (cytochrome c oxidase labelling) in the lumbar spinal cord or tyrosine hydroxylase immunoreactivity in the substantia nigra pars compacta and striatal sections, images captured using the Motic B5 Professional Series 3.0 microscope (Motic Instruments Inc., Richmond, ON) and analyzed using Motic B5 Professional, Motic Images Advanced 3.0 (Motic Instruments Inc., Richmond, ON) were scanned into a TIFF format file and analysed using the NIH Image J 1.37 software to measure density levels of antibody labelling. […]

[1] = tested on: Activating transcription factor-3; assay: Activating transcription factor-3 immunofluorescence; conditions: for Anti-ATF-3: SG-fed vs control
Procedure: as §1, §2

[2] = SG-fed group over time, 35 to 52 wk

CCC(C=CC(C)C1CCC2C3CC=C4CC(OC5OC(CO)C(O)C(O)C5O)CCC4(C)C3CCC12C)C(C)C (stereo not shown) [SG]
Apoptotic cells (Active Caspase-3; [2]): Apoptotic cells (SG-fed group over time) (ns)
number of apoptotic cells (Active Caspase-3; SG-fed vs control, 52 weeks (figure legend)): did not reach significance
Anti-active caspase 3 (Active Caspase-3; SG-fed vs control, time-point 2, 52 wk): (ns)
Cytochrome c oxidase Activity, Optical density (Cytochrome c oxidase; [2]): Optical density (SG-fed group over time): -36%**
Cytochrome c oxidase activity (Cytochrome c oxidase; 35 or 52 weeks): no significant differences
Cytochrome c oxidase activity (Cytochrome c oxidase; time-point 1, 35 wk): (ns)
Cytochrome c oxidase activity (Cytochrome c oxidase; time-point 2, 52 wk): (ns)
Anti-ATF-3 immunoreactive cells [1, 2]: Anti-ATF-3 immunoreactive cells (SG-fed group over time): -48%***
Anti-ATF-3 ([1]; time-point 1, 35 wk): Anti-ATF-3:+242%***
Anti-ATF-3 ([1]; time-point 2, 52 wk): Anti-ATF-3:+101%**
